From patent US20230277630A1, “METHODS AND COMPOSITIONS FOR TREATING AMYOTROPHIC LATERAL SCLEROSIS” (Amylyx Pharmaceuticals, Inc., priority 2022, published 2023)
Read-outs that look alike come from different tables or passages of the source.

Tests used:
OAT1 = target: T1, OAT1 (Homo sapiens, UniProt Q4U2R8); assay: OAT1 inhibitor (IC50) assessment, PAH uptake in transfected HEK cells; type: in vitro ADME
T1 construct: expressed in transfected cells; host or cells: HEK293
T1 sequence (Q4U2R8 1-563): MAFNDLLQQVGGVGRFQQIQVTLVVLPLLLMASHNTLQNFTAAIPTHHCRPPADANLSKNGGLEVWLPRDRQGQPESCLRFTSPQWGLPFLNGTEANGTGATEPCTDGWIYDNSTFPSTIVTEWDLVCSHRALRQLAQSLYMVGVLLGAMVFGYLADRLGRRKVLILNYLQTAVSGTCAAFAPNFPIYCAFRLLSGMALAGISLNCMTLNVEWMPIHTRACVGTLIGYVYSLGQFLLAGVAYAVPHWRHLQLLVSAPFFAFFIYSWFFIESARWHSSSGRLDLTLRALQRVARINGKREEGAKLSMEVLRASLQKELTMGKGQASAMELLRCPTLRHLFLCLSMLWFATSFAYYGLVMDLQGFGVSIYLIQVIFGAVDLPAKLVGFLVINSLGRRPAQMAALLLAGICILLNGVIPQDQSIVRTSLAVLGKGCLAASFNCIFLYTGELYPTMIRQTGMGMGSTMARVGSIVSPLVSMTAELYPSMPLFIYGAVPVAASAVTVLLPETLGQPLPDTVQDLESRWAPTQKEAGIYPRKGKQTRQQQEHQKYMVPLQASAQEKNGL

[1] = male, CD (Sprague-Dawley) IGS, rat, in vivo
hrCYP2B6 = target: T2, hrCYP2B6 (Homo sapiens, UniProt P20813); conditions: recombinant enzyme, 5 μM, pH 7.4
T2 sequence (P20813 1-491): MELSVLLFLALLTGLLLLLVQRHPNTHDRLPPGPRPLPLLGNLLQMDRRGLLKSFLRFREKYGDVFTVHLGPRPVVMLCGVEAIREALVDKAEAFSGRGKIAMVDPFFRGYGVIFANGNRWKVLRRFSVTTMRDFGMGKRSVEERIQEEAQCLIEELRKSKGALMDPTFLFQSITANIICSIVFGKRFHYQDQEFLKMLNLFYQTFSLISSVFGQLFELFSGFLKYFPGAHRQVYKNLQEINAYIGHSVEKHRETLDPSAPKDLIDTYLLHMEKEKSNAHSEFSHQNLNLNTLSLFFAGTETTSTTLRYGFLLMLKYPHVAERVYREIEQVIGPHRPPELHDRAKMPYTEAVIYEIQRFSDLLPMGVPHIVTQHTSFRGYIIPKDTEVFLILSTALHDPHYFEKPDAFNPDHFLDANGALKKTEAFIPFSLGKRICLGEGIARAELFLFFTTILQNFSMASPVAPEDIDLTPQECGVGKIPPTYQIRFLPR
Experimental: (§1) The reaction was initiated by the addition of NADPH, followed by incubation at 37° C.
(§2) % Remaining of TA=100×At/A0
(§3) Where, At is the peak area ratio of TA to internal standard (IS) at time t, A0 is the average peak area ratio of TA to IS at time zero.

hrCYP1A2 = target: T3, hrCYP1A2 (Homo sapiens, UniProt P05177); conditions: recombinant enzyme, 5 μM, pH 7.4
T3 sequence (P05177 1-516): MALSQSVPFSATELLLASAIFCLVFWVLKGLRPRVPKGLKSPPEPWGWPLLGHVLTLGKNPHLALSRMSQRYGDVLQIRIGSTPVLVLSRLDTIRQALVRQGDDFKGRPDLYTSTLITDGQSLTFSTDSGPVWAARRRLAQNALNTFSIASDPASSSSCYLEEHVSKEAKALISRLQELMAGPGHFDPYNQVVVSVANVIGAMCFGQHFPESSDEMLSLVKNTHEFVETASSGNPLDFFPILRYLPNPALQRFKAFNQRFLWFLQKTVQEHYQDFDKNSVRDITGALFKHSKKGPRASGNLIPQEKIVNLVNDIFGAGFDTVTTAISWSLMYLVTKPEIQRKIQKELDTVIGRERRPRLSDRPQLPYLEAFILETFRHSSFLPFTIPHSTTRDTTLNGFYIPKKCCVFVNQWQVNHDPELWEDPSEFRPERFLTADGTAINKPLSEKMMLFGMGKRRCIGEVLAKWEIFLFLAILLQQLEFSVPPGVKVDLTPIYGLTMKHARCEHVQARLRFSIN
Experimental: as §1, §2, §3

hrCYP2C19 = hrCYP2C19 (Homo sapiens, UniProt P33261); conditions: recombinant enzyme, 5 μM, pH 7.4
hrCYP2C19, sequence (P33261 whole entry): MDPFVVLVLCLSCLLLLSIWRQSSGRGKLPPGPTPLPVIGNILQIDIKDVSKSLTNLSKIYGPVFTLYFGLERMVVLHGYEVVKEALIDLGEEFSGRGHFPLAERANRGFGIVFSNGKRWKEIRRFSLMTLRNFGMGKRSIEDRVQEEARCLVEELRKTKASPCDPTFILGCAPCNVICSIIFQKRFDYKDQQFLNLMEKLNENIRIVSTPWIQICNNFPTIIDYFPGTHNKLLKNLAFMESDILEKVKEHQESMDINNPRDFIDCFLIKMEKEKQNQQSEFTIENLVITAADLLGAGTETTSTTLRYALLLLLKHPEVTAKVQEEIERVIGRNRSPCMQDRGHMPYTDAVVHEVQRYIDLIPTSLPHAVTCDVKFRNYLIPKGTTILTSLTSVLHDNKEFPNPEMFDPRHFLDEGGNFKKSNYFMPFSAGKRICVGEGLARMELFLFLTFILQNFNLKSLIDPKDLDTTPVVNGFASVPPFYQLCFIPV
Experimental: as §1, §2, §3

hrCYP2C9 = hrCYP2C9 (Homo sapiens, UniProt P11712); conditions: recombinant enzyme, 5 μM, pH 7.4
hrCYP2C9, sequence (P11712 whole entry): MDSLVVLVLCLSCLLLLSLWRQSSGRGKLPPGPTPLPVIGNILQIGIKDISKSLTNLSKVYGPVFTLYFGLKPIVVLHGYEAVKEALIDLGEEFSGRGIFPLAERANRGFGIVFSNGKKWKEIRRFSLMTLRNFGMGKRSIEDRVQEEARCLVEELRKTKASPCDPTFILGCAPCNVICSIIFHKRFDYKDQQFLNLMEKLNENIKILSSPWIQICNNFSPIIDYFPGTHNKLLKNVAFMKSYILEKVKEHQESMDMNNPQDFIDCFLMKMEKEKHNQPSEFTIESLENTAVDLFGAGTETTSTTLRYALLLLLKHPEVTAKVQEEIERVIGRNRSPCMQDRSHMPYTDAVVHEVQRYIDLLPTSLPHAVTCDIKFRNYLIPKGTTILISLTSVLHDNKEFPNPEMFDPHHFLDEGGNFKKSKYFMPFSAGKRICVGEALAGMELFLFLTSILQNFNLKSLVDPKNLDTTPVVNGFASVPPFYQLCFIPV
Experimental: as §1, §2, §3

hrCYP2D6 = hrCYP2D6 (Homo sapiens, UniProt P10635); conditions: recombinant enzyme, 5 μM, pH 7.4
hrCYP2D6, sequence (P10635 whole entry): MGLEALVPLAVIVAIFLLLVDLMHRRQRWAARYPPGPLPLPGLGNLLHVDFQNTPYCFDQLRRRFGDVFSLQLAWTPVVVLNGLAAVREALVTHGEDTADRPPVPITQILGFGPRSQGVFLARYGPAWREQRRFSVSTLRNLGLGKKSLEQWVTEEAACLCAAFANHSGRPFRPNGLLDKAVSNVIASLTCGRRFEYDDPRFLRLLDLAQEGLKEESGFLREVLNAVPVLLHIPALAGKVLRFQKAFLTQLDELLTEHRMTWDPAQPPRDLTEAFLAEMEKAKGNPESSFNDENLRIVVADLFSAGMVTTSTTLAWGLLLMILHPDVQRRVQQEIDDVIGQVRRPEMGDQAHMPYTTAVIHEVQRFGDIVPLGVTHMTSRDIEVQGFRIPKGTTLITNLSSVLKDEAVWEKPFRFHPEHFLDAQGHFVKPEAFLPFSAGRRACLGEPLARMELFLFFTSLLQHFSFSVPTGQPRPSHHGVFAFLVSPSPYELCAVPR
Experimental: as §1, §2, §3

P-gp = P-gp (Homo sapiens, UniProt P08183); assay: P-gp IC50 assessment, bidirectional digoxin transport in C2BBe1 cells
P-gp, sequence (P08183 whole entry): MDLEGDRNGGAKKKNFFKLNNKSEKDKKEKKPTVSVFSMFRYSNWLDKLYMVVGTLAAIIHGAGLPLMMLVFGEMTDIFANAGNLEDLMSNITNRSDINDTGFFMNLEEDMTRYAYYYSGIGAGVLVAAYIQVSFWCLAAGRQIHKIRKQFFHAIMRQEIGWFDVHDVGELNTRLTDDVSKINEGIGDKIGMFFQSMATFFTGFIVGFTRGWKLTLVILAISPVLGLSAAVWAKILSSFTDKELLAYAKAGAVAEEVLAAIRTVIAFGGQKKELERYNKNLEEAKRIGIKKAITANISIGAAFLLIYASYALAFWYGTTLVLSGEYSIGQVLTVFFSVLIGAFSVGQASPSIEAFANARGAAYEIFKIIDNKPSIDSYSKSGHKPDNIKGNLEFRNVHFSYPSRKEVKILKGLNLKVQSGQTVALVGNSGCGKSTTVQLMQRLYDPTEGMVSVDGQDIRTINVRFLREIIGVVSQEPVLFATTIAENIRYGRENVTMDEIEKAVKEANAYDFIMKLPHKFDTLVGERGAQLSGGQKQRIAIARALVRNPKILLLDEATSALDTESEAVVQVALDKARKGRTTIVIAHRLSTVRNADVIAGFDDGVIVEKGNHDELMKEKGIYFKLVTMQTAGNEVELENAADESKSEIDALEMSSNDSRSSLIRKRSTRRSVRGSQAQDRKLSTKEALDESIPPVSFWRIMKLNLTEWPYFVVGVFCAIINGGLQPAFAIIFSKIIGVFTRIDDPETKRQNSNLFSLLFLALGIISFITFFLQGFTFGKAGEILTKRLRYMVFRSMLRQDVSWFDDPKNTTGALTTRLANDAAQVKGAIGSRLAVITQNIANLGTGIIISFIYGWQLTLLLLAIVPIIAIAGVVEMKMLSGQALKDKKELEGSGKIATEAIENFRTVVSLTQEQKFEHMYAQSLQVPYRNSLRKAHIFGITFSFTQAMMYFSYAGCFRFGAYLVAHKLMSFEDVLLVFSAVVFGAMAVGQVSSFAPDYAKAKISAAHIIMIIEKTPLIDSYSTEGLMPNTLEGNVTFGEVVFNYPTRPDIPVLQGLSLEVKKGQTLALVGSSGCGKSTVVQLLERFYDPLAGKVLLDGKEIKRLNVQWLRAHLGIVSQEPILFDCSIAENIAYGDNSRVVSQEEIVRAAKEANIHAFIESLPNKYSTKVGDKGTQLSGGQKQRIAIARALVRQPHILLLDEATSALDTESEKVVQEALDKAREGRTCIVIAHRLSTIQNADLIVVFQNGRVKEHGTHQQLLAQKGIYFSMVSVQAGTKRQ
Experimental: After 30 minutes, the pre-incubation solution was aspirated.

[2] = design: species or system male Sprague Dawley rats; conditions: rat, in vivo
Experimental: Total urine recovery data for Tenofovir, TDF, and PB was calculated for the 24 hour collection period on Days 1 and 5. […] The reported urine recovery data included amount recovered (ng) and percent recovered (%) for […]. Individual and mean Tenofovir, TDF, and PB urine recovery data were presented with SD, reported to three significant figures, and CV %, reported to one decimal place.

[3] = TUDCA and PB present simultaneously, PAH uptake, HEK cells, read-out: estimated IC50 toward OAT1
[4] = previous study (Example 6), converted, read-out: IC50 for in vitro inhibition of human OAT1

Structure (SMILES) | IC50 (OAT1; [3]) [µM] | IC50 (OAT1; [4]) [µM] | % remained after 60 minutes of incubation (hrCYP2B6; 1 h) | % Remaining of TA (hrCYP1A2; 0 h) [%] | % Remaining of TA (hrCYP1A2; 5 min) [%] | % Remaining of TA (hrCYP1A2; 20 min) [%] | % Remaining of TA (hrCYP1A2; 0.5 h) [%] | % Remaining of TA (hrCYP1A2; 1 h) [%] | % remained after 60 minutes of incubation (hrCYP1A2; 1 h) | % Remaining of TA (hrCYP2C19; 0 h) [%] | % Remaining of TA (hrCYP2C19; 5 min) [%] | % Remaining of TA (hrCYP2C19; 10 min) [%] | % Remaining of TA (hrCYP2C19; 20 min) [%] | % Remaining of TA (hrCYP2C19; 0.5 h) [%] | % remained after 60 minutes of incubation (hrCYP2C19; 1 h) | % Remaining of TA (hrCYP2C9; 0 h) [%] | % Remaining of TA (hrCYP2C9; 20 min) [%] | % Remaining of TA (hrCYP2C9; 1 h) [%] | % remained after 60 minutes of incubation (hrCYP2C9; 1 h) | % Remaining of TA (hrCYP2D6; 0 h) [%] | further results
O=C(O)CCCc1ccccc1 [PB, sodium phenylbutyrate] | 6.76 to 20.3 | 6.72 to 20.2 | greater than 90% | 100 | 98.3 | 99.9 | 101 | 95.1 | greater than 90% | 100 | 97.4 | 101 | 99.7 | 97.5 | greater than 90% | 100 | 99.5 | 98.0 | greater than 90% | 100 | plasma concentrations remained quantifiable through [1]: 4 h; % Remaining of TA (hrCYP2C19; 1 h): 99.8%; % Remaining of TA (hrCYP2D6; 5 min): 99.9%; % Remaining of TA (hrCYP2D6; 10 min): 96.7%; % Remaining of TA (hrCYP2D6; 20 min): 97.6%; % Remaining of TA (hrCYP2D6; 0.5 h): 101%; % Remaining of TA (hrCYP2D6; 1 h): 100%; % remained after 60 minutes of incubation (hrCYP2D6; 1 h): greater than 90%; IC50 (P-gp): 1790 to 5370 µM; Urine concentrations ([2]; male, Sprague Dawley, po): Urine concentrations for PB analysis in all animals on Day 1, for TUDCA analysis in all animals on Days 1 and 5, and for TDF analysis in two animals on Day 1 and one animal on Day 5 were BLQ (<20 ng/mL) so no recovery data was calculated.
C[C@H](CCC(=O)NCCS(=O)(=O)O)[C@H]1CC[C@H]2[C@@H]3[C@@H](O)C[C@@H]4C[C@H](O)CC[C@]4(C)[C@H]3CC[C@]12C [TUDCA, tauroursodeoxycholic acid] | 0.0741 to 0.222 | 0.07 to 0.222 | greater than 90% | 100 | 98.0 | 99.9 | 103 | 90.5 | greater than 90% | 100 | 96.1 | 98.7 | 94.8 | 95.1 | greater than 90% | 100 | 98.5 | 90.3 | greater than 90% | 100 | IC50 (OAT1; previous study (Example 6), read-out: IC50 for in vitro inhibition of human OAT1): 0.074 to 0.222 µM; mean endogenous plasma levels over the 24 hour time course [1]: 130 to 222 ng/mL; % Remaining of TA (hrCYP2B6; 0 h): 100%; % Remaining of TA (hrCYP2B6; 5 min): 97.6%; % Remaining of TA (hrCYP2B6; 10 min): 97.0%; % Remaining of TA (hrCYP2B6; 20 min): 99.3%; % Remaining of TA (hrCYP2B6; 0.5 h): 99.7%; % Remaining of TA (hrCYP2B6; 1 h): 101%; % Remaining of TA (hrCYP1A2; 10 min): 101%; % Remaining of TA (hrCYP2C9; 5 min): 96.0%; % Remaining of TA (hrCYP2C9; 10 min): 98.8%; % Remaining of TA (hrCYP2C9; 0.5 h): 97.8%; % Remaining of TA (hrCYP2D6; 5 min): 98.4%; % Remaining of TA (hrCYP2D6; 10 min): 97.8%; % Remaining of TA (hrCYP2D6; 20 min): 97.0%; % Remaining of TA (hrCYP2D6; 0.5 h): 99.2%; % Remaining of TA (hrCYP2D6; 1 h): 98.6%; % remained after 60 minutes of incubation (hrCYP2D6; 1 h): greater than 90%; IC50 (P-gp): 222 to 667 µM; detection in urine [2]: not detected in any urine samples
